Results on 78 substances are retold here after patent US20230357447A1, “TUMOR ACTIVATED MULTISPECIFIC ANTIBODIES FOR TARGETING CD28 AND PD-L1 AND METHODS OF USE THEREOF” (Janux Therapeutics, Inc., priority 2022, published 2023).

In one experiment the test system is anti-CD28 scFv. Briefly: Phage binding ELISA (panning) of clonal phage on anti-CD28 scFv, with or without CD28 soluble protein. The settings on record: clonal phage supernatant; background (no anti-CD28 scFv signal). A digest of the protocol: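 Wells pre-incubated with blocking buffer plus CD28 soluble protein or blocking buffer alone, then crude clonal phage supernatants added without washing for a short incubation. After washing, bound phage detected with HRP-conjugated anti-M13 antibody.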
A general note: ELISA stands for enzyme-linked immunosorbent assay.
In the case of Phage-380 (MDYCPSYLWHECFA), the “Phage binding ELISA Backgroud signal” value is 0.065.

Regarding Phage-381 (MAWCPRILWHQCFN), the “Phage binding ELISA Backgroud signal” value is given as 0.113.

As to Phage-382 (ITWCPTSLWNRCLV), the “Phage binding ELISA Backgroud signal” value was 0.077.

For Phage-383 (LAGCQRDLATVCVI), the “Phage binding ELISA Backgroud signal” value was found to be 0.068.

On to Phage-384 (IMWCPTSLWNRCVT), for which the “Phage binding ELISA Backgroud signal” value was found to be 0.104.

With Phage-386 (NHWCPTTLWNRCVA), the “Phage binding ELISA Backgroud signal” value amounted to 0.293.

Turning to Phage-387 (MDWCPRHLWLECFN), the “Phage binding ELISA Backgroud signal” value was found to be 0.064.

For Phage-388 (MDWCPRFMWNFCFF), the “Phage binding ELISA Backgroud signal” value turned out to be 2.200.

With Phage-391 (MDWCPFDMWADCFF), the “Phage binding ELISA Backgroud signal” value was 0.063.

On to Phage-393 (MDWCPRDMWFECFN), for which the “Phage binding ELISA Backgroud signal” value was 0.069.

Consider Phage-394 (MDWCPRYMWSDCFF), for which the “Phage binding ELISA Backgroud signal” value stood at 0.082.

In the case of Phage-395 (MDWCPKDMWAECFN), the “Phage binding ELISA Backgroud signal” value amounted to 0.083.

Regarding Phage-396 (TDWCPRDMWYLCFN), the “Phage binding ELISA Backgroud signal” value is on record as 0.082.

As for Phage-397 (MDWCPRAMWDYCFY), the “Phage binding ELISA Backgroud signal” value amounted to 0.123.

For Phage-398 (MDWCPRNMWNECFF), the “Phage binding ELISA Backgroud signal” value is on record as 0.095.

As for Phage-399 (MDWCPRSMWDSCFN), the “Phage binding ELISA Backgroud signal” value is reported as 0.332.

For Phage-400 (MHWCPTYMWSECFA), the “Phage binding ELISA Backgroud signal” value was determined as 0.070.

On to Phage-401 (MDWCPLDMWVLCFA), for which the “Phage binding ELISA Backgroud signal” value is 0.085.

Consider Phage-402 (MDWCPRHMWHECFH), for which the “Phage binding ELISA Backgroud signal” value is 0.067.

Turning to Phage-403 (MSWCPWDMWNECFA), the “Phage binding ELISA Backgroud signal” value stood at 0.069.

Turning to Phage-404 (MDWCPRDMWTSCFN), the “Phage binding ELISA Backgroud signal” value was found to be 0.100.

Consider Phage-405 (MDWCPMSMWAFCFD), for which the “Phage binding ELISA Backgroud signal” value is recorded as 0.102.

On to Phage-406 (MNWCPIDMWTECFN), for which the “Phage binding ELISA Backgroud signal” value is 0.245.

For Phage-407 (MNWCPIHMWNQCFA), the “Phage binding ELISA Backgroud signal” value was found to be 0.085.

Consider Phage-408 (MFWCPKDMWAECFA), for which the “Phage binding ELISA Backgroud signal” value was 0.099.

Consider Phage-409 (LHWCPITMWTYCYY), for which the “Phage binding ELISA Backgroud signal” value amounted to 0.229.

For the substance Phage-410 (IDWCPRYMWHECFF), the “Phage binding ELISA Backgroud signal” value is on record as 0.098.

On to Phage-411 (MSWCPRFMWHECFN), for which the “Phage binding ELISA Backgroud signal” value was determined as 0.081.

Take Phage-412 (QHWCPRDMWNDCYA): the “Phage binding ELISA Backgroud signal” value is 0.066.

Consider Phage-413 (MDWCPSDMWSNCFN), for which the “Phage binding ELISA Backgroud signal” value is given as 0.070.

Phage-414 (LYWCPRDMWAYCYS): the “Phage binding ELISA Backgroud signal” value was 0.068.

With Phage-415 (MDWCPMYMWHKCFH), the “Phage binding ELISA Backgroud signal” value was 0.099.

Turning to Phage-417 (IYWCPTAMWNRCSA), the “Phage binding ELISA Backgroud signal” value came out at 0.086.

On to Phage-418 (MYWCPKYMWSECFA), for which the “Phage binding ELISA Backgroud signal” value was determined as 0.072.

For Phage-419 (VDWCPAHMWNECYN), the “Phage binding ELISA Backgroud signal” value is given as 0.208.

Consider Phage-420 (MFWCPSTMWNRCFD), for which the “Phage binding ELISA Backgroud signal” value is 0.063.

For Phage-422 (MYWCPINMWDYCYA), the “Phage binding ELISA Backgroud signal” value is reported as 0.122.

Phage-423 (INLCPTPMWNRCWL): the “Phage binding ELISA Backgroud signal” value stood at 0.119.

Phage-424 (ITQCPSTMWNRCSV): the “Phage binding ELISA Backgroud signal” value was determined as 0.067.

Phage-425 (MDLCPTAMWNRCFY): the “Phage binding ELISA Backgroud signal” value was found to be 0.063.

Take Phage-426 (MFLCPSAMWNRCFY): the “Phage binding ELISA Backgroud signal” value came to 0.069.

For the substance Phage-427 (VILCPTTMWNRCFH), the “Phage binding ELISA Backgroud signal” value is 0.100.

Take Phage-428 (MNWCPSTMWNRCLT): the “Phage binding ELISA Backgroud signal” value was 0.067.

With Phage-430 (IHLCHWVPWIKCSH), the “Phage binding ELISA Backgroud signal” value is recorded as 2.516.

Phage-431 (MAWCPADQWHECFN): the “Phage binding ELISA Backgroud signal” value worked out at 0.076.

Still in this experiment, the particulars now being: clonal phage supernatant; background signal.
As for Phage-344 (MDWCPRHLWVHCFS), the “Phage binding ELISA Backgroud signal” value is 0.096.

On to Phage-345 (MDFCPRFLWHECFN), for which the “Phage binding ELISA Backgroud signal” value is 0.063.

For Phage-346 (MDWCPRHLWHACFS), the “Phage binding ELISA Backgroud signal” value stood at 0.073.

As for Phage-347 (MDWCPLFLWDQCFN), the “Phage binding ELISA Backgroud signal” value was 0.116.

As to Phage-348 (MAWCPWYLWDECFN), the “Phage binding ELISA Backgroud signal” value was 0.200.

For Phage-349 (LDWCPRHLWALCFN), the “Phage binding ELISA Backgroud signal” value was 0.073.

Turning to Phage-350 (MDWCPWFLWNECFN), the “Phage binding ELISA Backgroud signal” value stood at 0.158.

Consider Phage-351 (MDWCPMNLWHECFA), for which the “Phage binding ELISA Backgroud signal” value is reported as 0.080.

Regarding Phage-352 (MDWCPIHLWYECFN), the “Phage binding ELISA Backgroud signal” value is 0.080.

Turning to Phage-353 (IDWCPLHLWHECYH), the “Phage binding ELISA Backgroud signal” value amounted to 0.067.

As for Phage-354 (MDWCPRYLWLECFN), the “Phage binding ELISA Backgroud signal” value came out at 0.083.

As to Phage-356 (MDWCPMYLWDECFF), the “Phage binding ELISA Backgroud signal” value was determined as 0.082.

Take Phage-357 (MDWCPRLLWHECFN): the “Phage binding ELISA Backgroud signal” value came out at 0.071.

Phage-359 (MDWCPRPLWHECFA): the “Phage binding ELISA Backgroud signal” value is 0.063.

As for Phage-360 (MDWCPMFLWHECFS), the “Phage binding ELISA Backgroud signal” value was 0.092.

In the case of Phage-361 (MHWCPRHLWSECFN), the “Phage binding ELISA Backgroud signal” value turned out to be 0.165.

Consider Phage-362 (MDWCPRILWHECFS), for which the “Phage binding ELISA Backgroud signal” value is 0.064.

On to Phage-363 (MNWCPMHLWAECFN), for which the “Phage binding ELISA Backgroud signal” value came out at 0.087.

For Phage-364 (MDWCPRSLWAQCFY), the “Phage binding ELISA Backgroud signal” value is listed as 0.067.

As to Phage-365 (MDWCPSYLWPVCFN), the “Phage binding ELISA Backgroud signal” value is given as 0.079.

Phage-366 (MHWCPLYLWDECFY): the “Phage binding ELISA Backgroud signal” value was 0.153.

In the case of Phage-367 (MDWCPSFLWYECFN), the “Phage binding ELISA Backgroud signal” value is on record as 0.063.

On to Phage-368 (MSWCPPYLWTVCYN), for which the “Phage binding ELISA Backgroud signal” value was 0.176.

With Phage-369 (MHWCPRDLWYECFA), the “Phage binding ELISA Backgroud signal” value came out at 0.072.

Turning to Phage-370 (MTWCPAYLWHECFN), the “Phage binding ELISA Backgroud signal” value is 0.086.

As to Phage-372 (MDWCPRYLWVDCFA), the “Phage binding ELISA Backgroud signal” value worked out at 0.095.

For the substance Phage-373 (MDWCPRILWSDCFN), the “Phage binding ELISA Backgroud signal” value stood at 0.082.

In the case of Phage-374 (MAWCPLDLWDKCFY), the “Phage binding ELISA Backgroud signal” value stood at 0.079.

Turning to Phage-375 (MNWCPRALWHECFL), the “Phage binding ELISA Backgroud signal” value was found to be 0.085.

Regarding Phage-376 (MDWCPRHLWTYCFH), the “Phage binding ELISA Backgroud signal” value was 0.109.

As for Phage-377 (MDWCPFDLWLECFN), the “Phage binding ELISA Backgroud signal” value turned out to be 0.087.

Phage-378 (MHWCPLHLWNECFA): the “Phage binding ELISA Backgroud signal” value was found to be 0.065.

As for Phage-379 (MDWCPRNLWAECFS), the “Phage binding ELISA Backgroud signal” value stood at 0.061.
